Laboratory results published in publication PMC10892818, “An Antiherpesviral Host-Directed Strategy Based on CDK7 Covalently Binding Drugs: Target-Selective, Picomolar-Dose, Cross-Virus Reactivity” (Pharmaceutics, 2024).

System: GCV- or MBV-resistant HCMV variants (ORF-UL97 mutants)
Test: HCMV reporter-based antiviral assays, series of GCV- or MBV-resistant variants
Format: cell-based, human cytomegalovirus
Experimental: For the infection experiments, stocks of the following recombinant, reporter protein-expressing viruses (GFP or YFP (i.e., green or yellow fluorescent protein, respectively)) were propagated (in permissive cells), determined in their infectious titers performing the respective reporter assays, stored by aliquots at −80 °C, and used for the assessment of antiviral drug activities: human cytomegalovirus HCMV AD169-GFP (HFFs); murine cytomegalovirus MCMV C3X-GFP (MEFs); guinea pig cytomegalovirus GPCMV v403-GFP (GPEFs); human herpesvirus type 6A HHV-6A U1102-GFP (J-Jhan); herpes simplex virus type 1 HSV-1 166v VP22-GFP (HFFs); varicella zoster virus VZV Oka-GFP (HFFs); Epstein-Barr virus EBV Akata-GFP (Akata-BX1-GFP carrier cells; kindly provided by Lindsey Hutt-Fletcher and Rona Scott, Dept. Microbiol. […]
Due to the fact that the HCMV-encoded protein kinase pUL97 represents a functional and structural ortholog of the host CDKs (vCDK/pUL97), the viral mutants of ORF-UL97 were assessed for sensitivity against CDK7 inhibitors. […] These HCMVs (i.e., UL97 mutants C592G, H520Q (GCV-res.) L397R (MBV-res.) M460I, T409M, H411Y, C480F, F432S, C603W (GCV- and MBV-double res.), and H469V (not determined yet)) were used for comparative analysis in HCMV reporter-based antiviral assays.

**Q.** How did the “drug resistance / sensitivity of the GCV- and MBV-resistant HCMVs” value turn out when `Nc1ccn(C[C@@H](CO)OCP(=O)(O)O)c(=O)n1` [CDV, cidofovir] was run?
**A.** The value was “all viruses showed sensitivity”.
